Data reported in article PMC11187126, “Structure and dynamics of the pyroglutamylated RF-amide peptide QRFP receptor GPR103” (Nature Communications, 2024).
Where two headings read alike, the source gives them in different places. No end group written: not given here.

Biological target: T1, GPR103 C327^7.48A (Homo sapiens, UniProt Q96P65, C327A)
T1 construct: we used human full-length QRFPR-encoding plasmids; expressed in transfected cells; host or cells: HEK293 cells (HEK293A in the flow cytometry section), pCAGGS vector
T1 sequence (Q96P65 1-431 C327A): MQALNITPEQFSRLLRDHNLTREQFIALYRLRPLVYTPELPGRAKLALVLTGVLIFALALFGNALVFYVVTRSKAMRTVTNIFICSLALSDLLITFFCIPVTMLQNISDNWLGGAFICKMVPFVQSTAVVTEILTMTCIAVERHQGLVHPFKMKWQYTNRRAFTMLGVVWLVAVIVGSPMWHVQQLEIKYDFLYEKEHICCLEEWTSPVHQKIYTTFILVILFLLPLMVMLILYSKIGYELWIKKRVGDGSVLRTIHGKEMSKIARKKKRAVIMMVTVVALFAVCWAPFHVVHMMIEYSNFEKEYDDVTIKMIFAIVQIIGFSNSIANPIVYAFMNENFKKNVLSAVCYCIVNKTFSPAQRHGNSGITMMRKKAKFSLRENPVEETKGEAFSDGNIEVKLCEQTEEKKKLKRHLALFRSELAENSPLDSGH
Assay: TGFα shedding assay; Exp. level WT (1:5)
Format: cell-based
Protocol: For the TGFα shedding assay and the flow cytometry analysis, we used human full-length QRFPR-encoding plasmids. Specifically, GPR103 was N-terminally modified with an HA signal sequence followed by a FLAG epitope and then a flexible linker ([…]; the FLAG epitope is underlined) and inserted into the pCAGGS vector. Plasmid encoding GPR103 mutants were generated using Quickchange Site-Directed Mutagensis kit (Agilent).
The TGFα shedding assay was performed as described previously with minor modifications. Plasmid transfection was performed in a 6-well plate with a mixture of 500 ng (per well in a 6-well plate) AP-TGFα-encoding plasmid and 200 ng GPR103-encoding plasmid. After 1-day culture, the transfected cells were harvested by trypsinization, pelleted by centrifugation at 190 × g for 5 min, and washed once with 5 mM HEPES (pH 7.4)-containing Hank’s Balanced Salt Solution (HBSS). After centrifugation, the cells were resuspended in 8 mL of the HEPES-containing HBSS. The cell suspension was seeded in a 96-well culture plate (cell plate) at a volume of 90 μL (per well hereafter) and incubated in a 37 °C incubator with 5% CO2 for 30 min. […] After spinning the cell plates at 190 × g for 2 min, 80 μL of conditioned media was transferred to an empty 96-well plate (conditioned media (CM) plate). Then, 80 μL of AP reaction solution (10 mM p-nitrophenylphosphate (p-NPP), 120 mM Tris-HCl (pH 9.5), 40 mM NaCl, and 10 mM MgCl2) was dispensed into the cell plates and the CM plates. Absorbance at 405 nm of the plates was measured using a microplate reader (SpectraMax 340 PC384, Molecular Devices) before and after 1-h incubation at room temperature. Ligand-induced AP-TGFα release was calculated by subtracting spontaneous AP-TGFα release signal from ligand-induced AP-TGFα release signal. The AP-TGFα release signals were fitted to a four-parameter sigmoidal concentration–response curve, using the Prism 10 software (GraphPad Prism). For each replicate experiment, the pEC50 parameter (negative logarithmic values of EC50 values) of the individual GPR103 mutants were normalized to that of the wild-type GPR103 performed in parallel, and resulting ∆pEC50 values were used to denote ligand response activity of the mutants. […]
Exp. le vel: WT (1:5 0)Exp. le vel: WT (1:5 0)Exp. le vel: WT (1:5 0)Exp. le vel: WT (1:2 0)Exp. le vel: WT (1:2 0)Exp. le vel: WT (1:1 0) […]
L1 4N - t e r mA F2 5N - t e r mA I 2 6N - t e r mA Y 2 9N - t e r mA C 9 82 .5 7A T10 22 .6 1A Exp . l eve l: WT (1 :5)Exp . l evel : >WT (1 :1)Exp. le vel: WT (1:2 0)Exp. le vel: WT (1:2 0)Exp. le vel: WT (1:5 0)Exp . l eve l: WT (1 :1) […]
Exp. le vel: WT (1:1 0)Exp. le vel: WT (1:2 0) C 1 1 83 .2 5AExp. le vel: WT (1:5 0)Exp. le vel: WT (1:5 0)Exp. le vel: WT (1:2 0)Exp . l eve l: WT (1 :5) […]
Exp. le vel: WT (1:5 0)Exp. le vel: WT (1:1 0)Exp. le vel: WT (1:5 0) E203ECL2AExp . l evel : >WT (1 :1)Exp. le vel: WT (1:5 0)Exp. le vel: WT (1:5 0) […]
Exp . l eve l: WT (1 :1) F28Exp. le vel: WT (1:5 0) C 2 8 56 .4 7AExp. le vel: WT (1:2 0) WExp. le vel: WT (1:2 0) F28Exp. le vel: WT (1:5 0)Exp . l evel : >WT (1 :1) […]
Exp. le vel: WT (1:5 0)Exp. le vel: WT (1:5 0) C 3 2 77 .4 8AExp . l eve l: WT (1 :5)Exp . l evel : >WT (1 :1)Exp . l evel : >WT (1 :1) […]
Suppl eme nt ary Figure 1 | Mutational analysis of GPR103. […]
mutants. Data are presented as mean values ± SEM, normally n=3-5; dots), each performed in triplicate. b-d Cell-surface expression (b) and QRFP26-in-duced activation of GPR103 (c, d) were analyzed by the flow cytometry and the TGFα shedding assay, respectively. From the concentration–response curves (a), Emax (c) and ΔpEC50 (d) values relative to the wild type were calculated. Colors in the mutant bars indicate an expression level matching to that of titrated wild type. Statistical analyses were performed using the ordinary one-way ANOVA followed by Dunnett tests with the expression-matched […]

Substance: TSGPLGNLAEELNGYSRKKGGFSFRF-NH2 [QRFP26]
- Emax (Exp. #1): 95.99 % WT
- Emax (Exp. #2): 96.35 % WT
- Emax (Exp. #3): 104.77 % WT
- Emax (mean, read-out: Emax): 99%
- EC50 (n = 3): 4.27 nM
- Emax (n = 3, read-out: Emax): 104 ± 2.3%
